Test results taken from paper PMC12207533, “Structure-guided design of a methyltransferase-like 3 (METTL3) proteolysis targeting chimera (PROTAC) incorporating an indole–nicotinamide chemotype” (RSC Medicinal Chemistry, 2025).
“And” between values parts separate entries of the source, which are not always exact repeats. Equal values may be shown once. Read-outs that look alike come from different tables or passages of the source. One block for each molecule: values may come before it.

Columns and labels:
[1] = tested on: Bcl-XL; experiment: Immunoblotting of Bcl-XL protein levels in MOLM-13 cells; assay type: cell-based, human; conditions: 2 μM, time course
Procedure: (§1) MOLM-13 were seeded in 12-well cell culture plates at a density of 1 × 10^6 cells per mL and treated with DMSO (final: 0.1%) or different concentrations of PROTAC degraders in DMSO at the indicated times. Treatments were conducted in biological triplicate with varying passages of MOLM-13 cells. The cells were harvested by centrifugation at 500g for 5 min and washed with PBS. The cells were lysed with RIPA lysis buffer with the addition of protease inhibitor (1× cOMPLETE), and insoluble cellular parts were separated by centrifugation (12 000g for 10 min), subsequently, the supernatant was boiled with 1× Laemmli sample buffer (Carl Roth) for 5 min at 95 °C. Proteins were separated by SDS–PAGE on 4–20% Criterion™ TGX™ Precast Protein Gels (Bio-Rad) and transferred to Amersham™ Protean® 0.45 μm nitrocellulose membrane (Cytiva) using semi-dry transfer (25 V, 1 A, Towbin buffer). […] The protein bands were detected via chemiluminescence using Pierce™ ECL western blotting substrate and a Fusion FX imaging system (Vilber). The ImageLab software (Bio-Rad) was used for band quantification.

[2] = tested on: Bcl-2; experiment: Immunoblotting of Bcl-2 protein levels in MOLM-13 cells; assay type: cell-based, human; conditions: 2 μM, time course
Procedure: as §1

[3] = target: T1, METTL3 (Homo sapiens, UniProt Q86U44); experiment: Immunoblotting of METTL3 protein levels in MOLM-13 cells; assay type: cell-based
T1 construct: endogenous in cells; host or cells: MOLM-13
Procedure: MOLM-13 were seeded in 12-well cell culture plates at a density of 1 × 10^6 cells per mL and treated with DMSO (final: 0.1%) or different concentrations of PROTAC degraders in DMSO at the indicated times. Treatments were conducted in biological triplicate with varying passages of MOLM-13 cells. The cells were harvested by centrifugation at 500g for 5 min and washed with PBS. The cells were lysed with RIPA lysis buffer with the addition of protease inhibitor (1× cOMPLETE), and insoluble cellular parts were separated by centrifugation (12 000g for 10 min), subsequently, the supernatant was boiled with 1× Laemmli sample buffer (Carl Roth) for 5 min at 95 °C. Proteins were separated by SDS–PAGE on 4–20% Criterion™ TGX™ Precast Protein Gels (Bio-Rad) and transferred to Amersham™ Protean® 0.45 μm nitrocellulose membrane (Cytiva) using semi-dry transfer (25 V, 1 A, Towbin buffer). The membrane was blocked with 5% milk (Carl Roth) in TBST buffer and incubated with the following primary antibodies: Anti-METTL3 (1 : 1000, Abcam, ab195352), anti-METTL14 (1 : 1000, Abcam, ab220030), anti-Bcl2 (1 : 1000, Cell Signaling Technology [CST], EPR16891), anti-Mcl-1 (1 : 1000, CST, 5453 T), anti-Bcl-XL (1 : 1000, CST, 2764 T), anti-vinculin (1 : 1000, CST, 13901) or anti-GAPDH (1 : 5000, CST, D17C4) overnight at 4 °C. Subsequently, the membrane was incubated for 1 h at RT with secondary antibodies: anti-rabbit (1 : 2000, VWR, NA934) or anti-mouse (1 : 2000, VWR, 102646-160). The protein bands were detected via chemiluminescence using Pierce™ ECL western blotting substrate and a Fusion FX imaging system (Vilber). The ImageLab software (Bio-Rad) was used for band quantification.

[4] = tested on: Mcl-1; experiment: Immunoblotting of Mcl-1 protein levels in MOLM-13 cells; assay type: cell-based, human; conditions: 2 μM, time course
Procedure: as §1

[5] = target: T2, VCB (VHL, elongin B, elongin C) (Homo sapiens, UniProt P40337); experiment: FP displacement assay with VCB (binary and ternary KD, cooperativity); assay type: binding
T2 construct: VHL (UniProt: P40337, aa 1–213); His6 (N); made in house; host or cells: E. coli BL21 (DE3)
Procedure: (§2) Fluorescence polarization (FP) displacement assays with METTL3/14 (ref. [36]) and VCB[38–40] were performed following previous protocols with slight adaptations. All experiments were conducted in black Greiner 96-well half-area plates using a Tecan Spark 10 M plate reader, equipped with polarization filters coupled to a monochromator setup (λex = 480 nm, λem = 530 nm). Reaction mixtures for METTL3/14 contained 300 nM recombinant enzyme, 20 nM FAM-labelled displacement tracer (STM-FL[36]), and the test compounds at varying concentrations in 25 mM Tris HCl, pH 7.5, 100 mM NaCl, and 10% DMSO. For VCB, the mixtures contained 40 nM recombinant enzyme, 10 nM FAM-labelled probe (FAM-DEALAHyp[…], Tocris Bioscience), and the tested compounds, at varying concentrations, in 50 mM Tris, pH 7.5, 200 mM NaCl, 2 mM DTT, and 10% DMSO. […] All measurements were performed at least as technical triplicates. Polarization values (mP) were determined from polarization-specific parallel and orthogonal fluorescence intensities using the Tecan in-built calculation routine. Using GraphPad Prism 8.0.1, the FP values were normalized, and KD values were calculated using a 4-parameter Hill equation: y(% probe bound) = bottom + ([ligand]slope) × (top–bottom)/([ligand]slope + KD slope).

[6] = tested on: m^6A levels in MOLM-13 mRNA; experiment: RNA m^6A quantification (colorimetric kit); assay type: cell-based, human; conditions: MOLM-13, AF151 2 μM vs STM2457 10 μM, 24 and 48 h
Procedure: Quantification of m^6A levels upon compound treatment was conducted in analogy to the study introducing the WD6305 PROTAC.[31] MOLM-13 cells were treated with AF151 (2 μM), STM2457 (10 μM), and DMSO in triplicate for 24 and 48 h. Total RNA was isolated as specified above. PolyA mRNA was then isolated using the PolyATtract® mRNA Isolation System (Promega). m^6A levels were quantified using a colorimetric m^6A RNA methylation Assay Kit (Abcam) as specified in the manufacturer's protocol.

[7] = target: T3, human VHL (Homo sapiens, UniProt P40337); experiment: HTRF human VHL binding kit
T3 construct: purchased Revvity
Procedure: PROTACs binding to VHL or CRBN were measured using a homogeneous time-resolved fluorescence (HTRF) human VHL or CRBN binding kit (Revvity). Samples were prepared according to the manufacturer's protocol, with compounds diluted in the provided diluent while maintaining a constant DMSO concentration with a final concentration of 1.25%. For the ternary KD determinations, METTL3/14 was added at 4 μM, corresponding to approximately a 20- to 40-fold excess of binary KD, while all other component concentrations were kept as specified in the protocol. Measurements were performed in triplicate using a Tecan Spark 10 M plate reader, recording donor and acceptor emissions at λem_donor = 620 nm and λem_acceptor = 665 nm, respectively, following excitation of the HTRF donor at λex = 320 nm. The acceptor-to-donor emission ratio was calculated as ratio = signal 665 nm/signal 620 nm. Using GraphPad Prism 8.0.1, the fluorescence values were normalized, and KD values were calculated as specified above.

[8] = tested on: MOLM-13 cells; experiment: Synergy analysis (ZIP, SynergyFinder+) of AF151 and venetoclax on cell viability; assay type: cell-based, human; conditions: co-treatment with venetoclax, 72 h
Procedure: (§3) To determine cell viability, MOLM-13 cells were treated with the indicated compounds in a 1 : 1 serial dilution, with pure DMSO (final: 0.1%) as the negative control. Briefly, 1000 cells were seeded in black Greiner half-area 96-well plates and incubated for 72 h with inhibitors from DMSO stocks under standard cultivation conditions. Then, Promega CellTiter Glo 2.0 reagent was added to each well according to the manufacturer's protocols, and luminescence was measured using a Tecan Spark 10 M. Experiments were conducted in technical triplicate. Data was normalized to the DMSO control and analyzed with GraphPad Prism 8.0.1 to determine EC50 values. Synergistic effects of venetoclax and AF151 on cell MOLM-13 viability were conducted accordingly, with dilution series of both compounds analyzed using the SynergyFinder+ webtoolkit.[57]

[9] = tested on: MOLM-13 cells; experiment: Real-time annexin V apoptosis assay; assay type: cell-based, human; conditions: MOLM-13, dose-dependent, monitored over 48 h
Procedure: MOLM-13 cells were treated with AF151 at the indicated concentrations for 48 h, with DMSO (final: 0.1%) as the negative control. Apoptosis of technical triplicate samples was detected in real-time using the RealTime-Glo™ annexin V apoptosis assay kit (Promega), following the manufacturer's protocol. Data were plotted using GraphPad Prism 8.0.1.

[10] = tested on: METTL14; experiment: Immunoblotting of METTL14 protein levels in MOLM-13 cells; assay type: cell-based, human
Procedure: as §1

[11] = tested on: MOLM-13 cells; experiment: Cell viability assay (CellTiter Glo 2.0); assay type: cell-based, human; conditions: Homo sapiens, MOLM-13, 72 h; read-out: IC50 (cell viability inhibition)
Procedure: as §3

[12] = tested on: METTL14 mRNA; experiment: RT-qPCR of METTL14 mRNA expression; assay type: cell-based, human; conditions: MOLM-13, AF151 2 μM or STM2457 10 μM, 24 h and 48 h
Procedure: (§4) To determine mRNA expression levels of METTL3 and METTL14, MOLM-13 cells were treated in triplicate with compound 41 (AF151, 2 μM), STM2457 (10 μM), and DMSO for 24 resp. 48 h. Afterward, total RNA was extracted using the TRIzol™ reagent (Thermo Fisher Scientific) and purified with the Monarch® Spin RNA Cleanup Kit (New England Biolabs). RT-qPCR was conducted using the two-step GoTaq® RT-qPCR system (Promega) following the manufacturer's protocol. The data were normalized to the DMSO control and GAPDH housekeeping gene (ΔΔCt) using GraphPad Prism 8.0.1.

[13] = target: T4, METTL3/14 (Homo sapiens, UniProt Q86U44); experiment: Fluorescence polarization (FP) displacement assay with METTL3/14; assay type: binding
T4 construct: human METTL3 (UniProt: Q86U44, aa 252–580); Strep-tag II (C); made in house; host or cells: E. coli BL21 (DE3)
Procedure: as §2

[14] = tested on: METTL3 mRNA; experiment: RT-qPCR of METTL3 mRNA expression; assay type: cell-based, human; conditions: MOLM-13, AF151 2 μM or STM2457 10 μM, 24 h and 48 h
Procedure: as §4

T1 sequence (Q86U44 whole entry): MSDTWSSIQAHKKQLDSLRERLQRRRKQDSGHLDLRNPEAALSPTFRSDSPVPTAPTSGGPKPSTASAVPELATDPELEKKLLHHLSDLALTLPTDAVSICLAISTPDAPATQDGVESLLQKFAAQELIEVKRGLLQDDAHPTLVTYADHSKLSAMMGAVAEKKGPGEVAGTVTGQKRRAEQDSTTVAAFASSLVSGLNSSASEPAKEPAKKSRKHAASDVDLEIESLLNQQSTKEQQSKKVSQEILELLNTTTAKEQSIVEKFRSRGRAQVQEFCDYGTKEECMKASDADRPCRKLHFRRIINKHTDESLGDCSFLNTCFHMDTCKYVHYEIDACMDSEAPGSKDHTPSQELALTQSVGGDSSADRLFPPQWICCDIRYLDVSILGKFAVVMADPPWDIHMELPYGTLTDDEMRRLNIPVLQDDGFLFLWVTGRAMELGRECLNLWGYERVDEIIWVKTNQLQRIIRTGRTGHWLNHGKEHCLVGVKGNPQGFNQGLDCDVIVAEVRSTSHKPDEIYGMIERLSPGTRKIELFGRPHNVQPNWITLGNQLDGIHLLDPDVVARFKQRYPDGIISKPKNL
T2 sequence (P40337 whole entry, the tested form may be a part): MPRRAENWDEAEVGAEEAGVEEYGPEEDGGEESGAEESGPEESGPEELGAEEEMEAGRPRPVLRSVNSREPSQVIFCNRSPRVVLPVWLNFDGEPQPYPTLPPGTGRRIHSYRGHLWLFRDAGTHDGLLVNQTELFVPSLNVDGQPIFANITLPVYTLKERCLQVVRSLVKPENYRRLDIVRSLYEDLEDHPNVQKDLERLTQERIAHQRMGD
T2 sequence (Q15370 whole entry partner, the tested form may be a part): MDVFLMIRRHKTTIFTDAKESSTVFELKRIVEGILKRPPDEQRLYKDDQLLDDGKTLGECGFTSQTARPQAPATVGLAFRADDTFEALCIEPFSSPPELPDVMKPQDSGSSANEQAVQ
T2 sequence (Q15369 17-112 partner limits assumed): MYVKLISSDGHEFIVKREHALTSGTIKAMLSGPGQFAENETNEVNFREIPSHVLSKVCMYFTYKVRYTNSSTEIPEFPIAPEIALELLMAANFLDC
T3 sequence (P40337 whole entry): as the sequence (P40337 whole entry, the tested form may be a part) above
T3 sequence (Q15370 whole entry partner): as the sequence (Q15370 whole entry partner, the tested form may be a part) above
T3 sequence (Q15369 whole entry partner): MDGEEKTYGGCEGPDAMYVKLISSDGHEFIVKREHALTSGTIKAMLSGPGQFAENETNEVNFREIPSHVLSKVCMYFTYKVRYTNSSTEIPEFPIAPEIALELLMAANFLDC
T4 sequence (Q86U44 252-580): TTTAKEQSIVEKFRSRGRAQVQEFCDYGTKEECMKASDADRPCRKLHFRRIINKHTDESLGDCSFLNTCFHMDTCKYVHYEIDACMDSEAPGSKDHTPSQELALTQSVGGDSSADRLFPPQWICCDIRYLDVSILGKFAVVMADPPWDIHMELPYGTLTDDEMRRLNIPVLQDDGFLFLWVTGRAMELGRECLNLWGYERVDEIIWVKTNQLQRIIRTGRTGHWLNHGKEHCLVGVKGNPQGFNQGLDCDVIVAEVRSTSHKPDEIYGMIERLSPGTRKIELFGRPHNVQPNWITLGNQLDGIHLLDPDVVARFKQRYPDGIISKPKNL
T4 sequence (Q9HCE5 108-444 partner limits assumed): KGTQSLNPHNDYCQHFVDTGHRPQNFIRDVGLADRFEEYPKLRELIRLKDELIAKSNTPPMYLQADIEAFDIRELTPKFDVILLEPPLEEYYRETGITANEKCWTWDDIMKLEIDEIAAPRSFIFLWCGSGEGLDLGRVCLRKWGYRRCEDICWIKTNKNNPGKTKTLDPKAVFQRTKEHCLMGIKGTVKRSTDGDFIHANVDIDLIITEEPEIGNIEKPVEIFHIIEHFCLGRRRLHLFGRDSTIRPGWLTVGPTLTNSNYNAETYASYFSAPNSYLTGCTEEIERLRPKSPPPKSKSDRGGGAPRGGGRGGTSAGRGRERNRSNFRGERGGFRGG

- time for which maximal METTL3 degradation is maintained ([3]; 2 μM, time course, MOLM-13): at least 48 h
- time of maximal METTL3 degradation effect ([3]; 2 μM, time course, MOLM-13): 24 h
- METTL3 reduction ([3]; 2 μM, within the first 6 h of treatment, MOLM-13): over 50%
- METTL3 degradation (Western blot) ([3]; MOLM-13, 1 μM, 16 h): significant degradation
- concentration of hook effect (METTL3 degradation decreased) ([3]; MOLM-13, 16 h): > 5 µM
- DC50 ([3]; MOLM-13, 16 h treatment, read-out: DC50 (METTL3 degradation)): 430 nM
- METTL3 degradation on co-treatment with MLN4924 ([3]; MOLM-13, MLN4924 1 μM): suppressed METTL3 degradation
- Dmax at 2.5 µM ([3]; MOLM-13, MOLM-13, 16 h, maximal degradation occurred at 2.5 μM): 95%
- METTL3 degradation on co-treatment with STM2457 ([3]; MOLM-13, STM2457 20 μM): inhibited degradation
- METTL3 degradation on co-treatment with VH032 ([3]; MOLM-13, VH032 10 μM): suppressed METTL3 degradation
- METTL3 degradation on co-treatment with bortezomib ([3]; MOLM-13, bortezomib 1 μM): suppressed METTL3 degradation
- Kd ([5]; absence of METTL3, read-out: KD binary (VHL)): 363 nM
- Kd ([5]; presence of METTL3/14 (12 μM), read-out: KD ternary (VHL)): 79.9 nM and 77 nM
- Kd ([7]; HTRF Human VHL Binding Kit, binary, read-out: KD E3-ligases (VHL, HTRF)): 740 ± 113 nM
- cooperativity (HTRF) ([7]; VHL affinity in presence and absence of METTL3/14 (4 μM)): positive cooperativity
- IC50 [11]: 450 nM
- Kd [13]: 159 ± 26 nM
Structure (SMILES): Cc1ncsc1-c1ccc(CNC(=O)[C@@H]2C[C@@H](O)CN2C(=O)[C@@H](NC(=O)CCc2ccc(-c3ccc(COc4cncc(C(=O)NCc5ccc6cc(CN7CCC(C)(C)CC7)[nH]c6c5)c4)cc3)cc2)C(C)(C)C)cc1 [compound 41]
- effect on Bcl-XL protein level [1]: but not Bcl-XL
- effect on Bcl-2 protein level [2]: time-dependent reduction
- t1/2 of Bcl-2 protein level decrease [2]: 18 h
- effect on Mcl-1 protein level [4]: time-dependent reduction
- global m^6A level reduction in mRNA [6]: more pronounced m^6A reduction
- maximum ZIP synergy score [8]: 28.87
- mean ZIP synergy score [8]: 3.38
- time to apoptosis induction [9]: approximately 10 h
- METTL14 protein level relative to DMSO (transient increase) ([10]; 2 μM, after 1 h, MOLM-13): ~150%
- METTL14 degradation (Western blot) ([10]; MOLM-13, 1 μM, 16 h): significant degradation
- METTL14 mRNA level (ΔΔCt) [12]: no significant changes
- METTL3 mRNA level (ΔΔCt) [14]: no significant changes

- METTL3 degradation (Western blot screening) ([3]; MOLM-13, 0.1-10 μM, 16 h): do not func?on as METTL3 degraders
Structure (SMILES): COc1cc2c(cc1Cc1cccc(Cl)c1F)c(=O)c(C(=O)O)cn2[C@H](CO)C(C)C [Elvitegravir, reference compound]
